Values of other authors in patent US20050176827A1, “Compositions and methods for glycogen synthesis” (priority 2002, published 2005).

Test system: pancreatic beta cell
Conditions: micromolar concentrations; direct effect on pancreatic beta cell, glucose dependent

CC(O)C(C)C(N)C(=O)O (stereo not shown) [4-hydroxyisoleucine]
effect on glucose-induced insulin secretion: stimulate glucose-induced insulin secretion
